Assay: Stability studies for Melatonin, Resveratrol and L-ascorbic acid in cosmetic serum (HPLC with diode array detection, 55 days)
Type: physicochemical
Details: for concentration in the mixed formulation: formulation containing all three compounds, unchanged over 55 days; for change of concentration/percentage over 55 days: mixed versus single component formulation, 25° C. and 40° C.
Procedure: Stability studies for Melatonin, Resveratrol and L-ascorbic acid in cosmetic serum Object of this work was the studies related to the stability of Melatonin, Resveratrol and L-ascorbic acid when individually present in formulation in comparison with a formulation in which they are simultaneously mixed together, in order to explore the potential stabilization of L-ascorbic acid by Melatonin. The stability studies were performed at 25° C. (room temperature) and 40° C. (oven) for 55 days. Four formulations were analyzed: one mixture containing the three compounds together plus 3 formulations, which individually contained the three compounds. The excipients were all the same in the four formulations. The method employed to follow formulation stability is an HPLC method with diode array detection, under gradient conditions, as specified in the previous report. The results of these studies are shown in the graphs reported in FIGS. 10, 11 and 12 as well as in the following Tables 1, 2 and 3 where the percentages of the three compounds in the formulation (p/p) are plotted against time. In particular, the percentages were determined over 55 days, by comparison with reference standard compounds.

[1] = mix (three compounds together), T = 25° C., day 0
[2] = mix (three compounds together), T = 25° C., day 2
[3] = mix (three compounds together), T = 25° C., day 50
[4] = mix (three compounds together), T = 25° C., day 55
[5] = mix (three compounds together), T = 40° C., day 0
[6] = mix (three compounds together), T = 40° C., day 42
[7] = mix (three compounds together), T = 40° C., day 44
[8] = mix (three compounds together), T = 40° C., day 48
[9] = mix (three compounds together), T = 40° C., day 51
[10] = mix (three compounds together), T = 40° C., day 55
[11] = single component formulation, T = 25° C., day 0
[12] = single component formulation, T = 25° C., day 2
[13] = single component formulation, T = 25° C., day 44
[14] = single component formulation, T = 25° C., day 48
[15] = single component formulation, T = 25° C., day 50
[16] = single component formulation, T = 25° C., day 55
[17] = single component formulation, T = 40° C., day 0
[18] = single component formulation, T = 40° C., day 42
[19] = single component formulation, T = 40° C., day 48
[20] = single component formulation, T = 40° C., day 51
[21] = single component formulation, T = 40° C., day 55
[22] = mix (three compounds together), T = 25° C., day 44
[23] = mix (three compounds together), T = 25° C., day 48
[24] = single component formulation, T = 40° C., day 44

Row | Compound | concentration in the mixed formulation [%] | percentage of the compound in the formulation (p/p) [1] [%] | percentage of the compound in the formulation (p/p) [2] [%] | percentage of the compound in the formulation (p/p) [3] [%] | percentage of the compound in the formulation (p/p) [4] [%] | percentage of the compound in the formulation (p/p) [5] [%] | percentage of the compound in the formulation (p/p) [6] [%] | percentage of the compound in the formulation (p/p) [7] [%] | percentage of the compound in the formulation (p/p) [8] [%] | percentage of the compound in the formulation (p/p) [9] [%] | percentage of the compound in the formulation (p/p) [10] [%] | percentage of the compound in the formulation (p/p) [11] [%] | percentage of the compound in the formulation (p/p) [12] [%] | percentage of the compound in the formulation (p/p) [13] [%] | percentage of the compound in the formulation (p/p) [14] [%] | percentage of the compound in the formulation (p/p) [15] [%] | percentage of the compound in the formulation (p/p) [16] [%] | percentage of the compound in the formulation (p/p) [17] [%] | percentage of the compound in the formulation (p/p) [18] [%] | percentage of the compound in the formulation (p/p) [19] [%] | other results
1 | O=C1O[C@H]([C@@H](O)CO)C(O)=C1O [L-ascorbic acid] | 14.5 | 15.34 | 14.10 | 15.10 | 15.00 | 14.35 | 14.30 | 15.13 | 13.50 | 14.96 | 15.00 | 13.40 | 13.32 | 8.80 | 10.80 | 10.50 | 10.43 | 14.86 | 8.46 | 8.60 | change in L-ascorbic acid concentration (formulation containing all the three ingredients, 55 days): no change; loss of L-ascorbic acid (single component formulation, 25° C., 55 days): 22%; loss of L-ascorbic acid (single component formulation, 40° C., 55 days): 36%; percentage of the compound in the formulation (p/p) [20]: 9.00%; percentage of the compound in the formulation (p/p) [21]: 9.60%
2 | COc1ccc2[nH]cc(CCNC(C)=O)c2c1 [Melatonin] | 0.20 | 0.20 | 0.25 | 0.23 | 0.20 | 0.18 | 0.17 | 0.18 | 0.14 | 0.18 | 0.20 | 0.28 | 0.33 | 0.30 | 0.26 | 0.31 | 0.30 | 0.26 | 0.25 | 0.29 | percentage of the compound in the formulation (p/p) [22]: 0.20%; percentage of the compound in the formulation (p/p) [23]: 0.20%; change of concentration/percentage over 55 days: does not change much; concentration in the single component formulation (same concentration found after 55 days of storage at 25° C. and 40° C.): 0.28%; percentage of the compound in the formulation (p/p) [24]: 0.25%; percentage of the compound in the formulation (p/p) [20]: 0.29%; percentage of the compound in the formulation (p/p) [21]: 0.28%
3 | Oc1ccc(C=Cc2cc(O)cc(O)c2)cc1 [Resveratrol] | 0.20 | 0.20 | 0.20 | 0.14 | 0.16 | 0.20 | 0.18 | 0.18 | 0.20 | 0.16 | 0.18 | 0.22 | 0.19 | 0.17 | 0.20 | 0.17 | 0.17 | 0.22 | 0.16 | 0.18 | degradation (in 55 days, in all the conditions, formulations kept at 25° C. and 40° C.): approximately 10%; percentage of the compound in the formulation (p/p) [22]: 0.14%; percentage of the compound in the formulation (p/p) [23]: 0.20%; change of concentration/percentage over 55 days: does not change significantly; percentage of the compound in the formulation (p/p) (single component formulation, T = 40° C., day 2): 0.19%; percentage of the compound in the formulation (p/p) [24]: 0.20%; percentage of the compound in the formulation (p/p) [20]: 0.20%; percentage of the compound in the formulation (p/p) [21]: 0.20%

Reference: patent publication US20110206792A1, “COMPOSITIONS COMPRISING VITAMINS” (priority 2008, published 2011)
